The values below come from patent US4831051A, “Aromatic derivatives comprising an aminoalkoxy chain, the salts thereof, the process for preparing these derivatives and salts and the application thereof in therapeutics” (Delande S.A., priority 1981, dated 1989).

The nature of this data set: acute toxicity estimated on mice (method of MILLER and TAINTER). The settings on record: mouse, in vivo, iv.
Consider `COc1ccc(OC)c(C(=O)CCc2ccc(O)cc2)c1OCCN1CCCCC1` [compound 2], for which the LD50 is 14 mg/kg.
Regarding `COc1ccc(OC)c(C(O)CCc2ccccc2)c1OCCN1CCCCC1` (stereo not shown) [compound 3], the LD50 was 16 mg/kg.
For the compound `COc1ccc(OC)c(C(O)CCc2ccc(F)cc2)c1OCCN1CCCCC1` (stereo not shown) [compound 4], the median lethal dose (LD50) is 31 mg/kg.
On to `COc1ccc(OC)c(C(O)CCc2ccc(Cl)cc2)c1OCCN1CCCCC1` (stereo not shown) [compound 5], for which the LD50 is 33 mg/kg.
Next, `COc1ccc(OC)c(C(O)CCc2ccc(C)cc2)c1OCCN1CCCCC1` (stereo not shown) [compound 6]: 31 mg/kg; `COc1ccc(CCC(O)c2c(OC)ccc(OC)c2OCCN2CCCCC2)cc1` (stereo not shown) [compound 7]: 27 mg/kg.
Turning to `COc1ccc(OC)c(C(O)CCc2ccccc2O)c1OCCN1CCCCC1` (stereo not shown) [compound 8], the LD50 is 12 mg/kg.
Next, `COc1ccc(OC)c(C(O)CCc2cccc(O)c2)c1OCCN1CCCCC1` (stereo not shown) [compound 9]: 11 mg/kg; `COc1ccc(OC)c(C(O)CCc2ccc(O)cc2)c1OCCN1CCCCC1` (stereo not shown) [compound 10]: 20 mg/kg; `COc1ccc(OC)c(C(O)CCc2ccc(O)cc2)c1OCCCN1CCCCC1` (stereo not shown) [compound 11]: 22 mg/kg.
Under `CCN(CC)CCOc1c(OC)ccc(OC)c1C(O)CCc1ccc(O)cc1` (stereo not shown) [compound 12] stands 23 mg/kg; under `COc1ccc(OC)c(C(O)CCc2ccc(O)cc2)c1OCCN1CCCC1` (stereo not shown) [compound 13], 27 mg/kg.
With `COc1cc(OC)c(C(O)CCc2ccc(O)cc2)c(OCCN2CCCCC2)c1OC` (stereo not shown) [compound 14], the LD50 was 33 mg/kg.
Next, `COc1cc(OC)c(CCCc2ccc(O)cc2)c(OCCN2CCCCC2)c1` [compound 60]: 8.9 mg/kg; `CCCN(CCC)CCOc1c(OC)ccc(OC)c1C(O)CCc1ccc(O)cc1` (stereo not shown) [compound 62]: 13 mg/kg; `COc1c2c(c(OC)c(C(O)CCc3ccc(O)cc3)c1OCCN1CCCCC1)OCCO2` (stereo not shown) [compound 66]: 15.7 mg/kg.
Next, `COc1c(OC)c(OC)c(C(O)CCc2ccc(O)cc2)c(OCCN2CCCCC2)c1OC` (stereo not shown) [compound 67]: 32.5 mg/kg; `COc1c(OCCN2CCCCC2)c(C(O)CCc2ccc(O)cc2)c(OC)c2ccccc12` (stereo not shown) [compound 68, 3-parahydroxyphenyl 1-[3-(2-piperidino)ethoxy 1,4-dimethoxynaphtalenyl-2]propanol-1, hydrated]: 12.3 mg/kg.
`COc1cc(Cl)c(OC)c(OCCN2CCCCC2)c1C(O)CCc1ccc(O)cc1` (stereo not shown) [compound 69]: the LD50 is 8.6 mg/kg.
In the case of `CCN(CC)CCOc1c(OC)c(Cl)cc(OC)c1C(O)CCc1ccc(O)cc1` (stereo not shown) [compound 70], the LD50 was 14 mg/kg.
Regarding `COc1cc(Cl)c(OC)c(OCCN(C(C)C)C(C)C)c1C(O)CCc1ccc(O)cc1` (stereo not shown) [compound 71], the LD50 is 11.5 mg/kg.
For `COc1cc(F)c(OC)c(OCCN2CCCCC2)c1C(O)CCc1ccc(O)cc1` (stereo not shown) [compound 72], the 50% lethal dose (LD50) is 3.4 mg/kg.
Under `COc1cc(Cl)c(OC)c(C(O)CCc2ccc(O)cc2)c1OCCN1CCCCC1` (stereo not shown) [compound 73] stands 11.7 mg/kg.
Next, `COc1cc([N+](=O)[O-])c(OC)c(C(O)CCc2ccc(O)cc2)c1OCCN1CCCCC1` (stereo not shown) [compound 74]: 18.6 mg/kg; `CC(C)(Cc1ccc(O)cc1)C(O)c1ccccc1OCCN1CCCCC1` (stereo not shown) [compound 77]: 43 mg/kg.
